In paper PMC9127232, “Wound Healing Properties of Jasione montana Extracts and Their Main Secondary Metabolites” (Frontiers in Pharmacology, 2022):
“And” between values parts separate entries of the source, which are not always exact repeats. Equal values may be shown once. “Also recorded” adds a separate entry of the source.

Assays:
[1] = tested on: IL-6 in fibroblast cells (PCS-201-012); assay: Cytometric Bead Array, IL-6 secretion; assay type: cell-based, human; settings: 24 h
Experimental: (§1) The normal human dermal fibroblast cell line (PCS-201-012) was cultured in DMEM blended with 10% fetal bovine serum (FBS), 10 μg/mL streptomycin, and 10 units/mol penicillin. The cells were cultured in 5% CO2 and fully humidified at 37°C. All tested compounds were dissolved at a final vehicle (DMSO) concentration of not more than 0.5% (v/v). Cells cultured in drug-free DMEM were used as controls, and cells treated with DMSO alone were used as solvent controls. All extracts (JM1–JM6) and the main components of the tested extracts (9, 12, and 22) were analyzed at the following concentrations: 10, 25, 50, 100, 200, and 300 μg/mL. The effect of the tested extracts and fractions (JM1–JM6) as well as 9, 12, and 22 on cytokine (IL-1β, IL-6 IL-8, IL-10, IL-12p70 and TNF) secretion was determined using the Cytometric Bead Array (CBA) Human Inflammatory Cytokine Kit according to the manufacturer’s protocols. After 24 h of incubation with the test samples at concentrations of 10, 25, 50, 100, 200, and 300 μg/mL, fibroblast cells were washed with PBS, trypsinized, resuspended in DMEM and centrifuged (1,200 rpm, 10 min, 4°C). The supernatant was then replaced with 50 μL of assay diluent with the addition of 50 μL of assay beads and 50 μL of PE-labeled antibodies (detection reagent) from the human inflammatory cytokine kit. Incubation was performed for 3 h at room temperature without daylight, after which the fibroblast cells were washed and centrifuged (1,200 rpm, 5 min, 4°C). The cell pellet was resuspended in 300 μL of wash buffer and then immediately subjected to analysis by FCAP Array v3 software on a BD FACSCanto II flow cytometer (both from BD Biosciences Systems, San Jose, CA, United States) calibrated with BD Cytometer Setup and Tracking beads (BD Biosciences, San Diego, CA, United States).

[2] = DPPH radical-scavenging assay; settings: for DPPH, IC50: 30 min, absorbance 517 nm, mean ± SD; for antiradical potential in the DPPH method compared with Trolox: vs positive control Trolox IC50 58.6 ± 0.1 μg/mL
Experimental: All extracts (JM1–JM6) and main components of the tested extracts (9, 12, and 22) were isolated and identified as previously described ([Juszczak et al., 2021]). A total of 130 μL of sample solution at various concentrations was mixed with 70 μL of DPPH (0.2 mg/mL) in a 96-well plate. Then, the reaction mixture was incubated in the dark at room temperature. After 30 min, the absorbance was recorded at 517 nm using a microplate reader (BioTek Instruments microplate spectrophotometer EPOCH 2, Oxfordshire, United Kingdom). A blank solution was prepared by mixing methanol and DPPH solution. Trolox was used as a positive control. The experiment was performed in triplicate. RSA(%)=(C-S)/C×100% where C is the negative control and S is the sample. Concentration of the tested samples, which scavenges 50% of free radicals present in the solution (IC50), was calculated.

[3] = molecular target: porcine pancreatic elastase (Sus scrofa, UniProt P00772); assay: Elastase inhibitory activity; assay type: biochemical; settings: for anti-elastase activity (in words): extracts 100–600 μg/mL, compounds 10–200 μg/mL
Chain of porcine pancreatic elastase (P00772 27-266): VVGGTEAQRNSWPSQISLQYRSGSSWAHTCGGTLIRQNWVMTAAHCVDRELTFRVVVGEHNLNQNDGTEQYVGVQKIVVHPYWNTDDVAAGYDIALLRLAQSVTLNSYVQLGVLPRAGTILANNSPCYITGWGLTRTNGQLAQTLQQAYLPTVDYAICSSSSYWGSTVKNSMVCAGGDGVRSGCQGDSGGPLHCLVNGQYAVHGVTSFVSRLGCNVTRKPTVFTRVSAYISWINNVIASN
Experimental: The measurement of elastase inhibition was modified slightly according to a previous method ([Wittenauer et al., 2015]). The procedure was performed in 100 mM Tris buffer (pH = 8.0). Briefly, 100 µL of extracts (JM1–JM6) (100–600 μg/mL) or compounds (9, 12, and 22) (10–200 μg/mL) and 100 µL of Tris buffer were mixed with 25 µL of porcine pancreatic elastase solution (0.05 mg/mL). Then, the mixtures were preincubated at 25°C for 5 min, and 70 µL of AAAPVN (0.4 mg/mL) was added. After another 15 min of incubation, the release of p-nitroaniline was monitored at 410 nm using a microplate reader. A blank solution was prepared by using buffer instead of sample solution. […] The calculations were performed as follows: ElInh(% )=(C-S)/C×100% where C is the negative control and S is the sample.

[4] = Ferric reducing antioxidant potential (FRAP); settings: for FRAP: 1 h at 37°C, 594 nm
Experimental: Determination of the ferric reducing antioxidant potential (FRAP) was performed using a ferric reducing antioxidant power assay kit. Ten microliters of each sample (JM1–JM6, 9, 12, 22) was mixed with 190 µL of supplied reaction mix (FRAP assay buffer, FeCl3 solution, FRAP probe). The absorbance was measured after 1 h of incubation at 37°C at 594 nm using a microplate reader. A blank solution contained 10 µL of MeOH instead of extract/compound solution. For further calculations, the ferrous standard curve was evaluated. The values are given as mM ferrous equivalents. All tests were executed in triplicate.

[5] = tested on: IL-8 in fibroblast cells (PCS-201-012); assay: Cytometric Bead Array, IL-8 secretion; assay type: cell-based, human; settings: 24 h
Experimental: as §1

[6] = tested on: dermal fibroblast cells; parameters: method as in Juszczak et al., 2021; settings: ref Juszczak et al., 2021; cited from earlier work
[7] = tested on: normal human dermal fibroblast cell line (PCS-201-012); assay: Scratch proliferation and migration assay; assay type: cell-based; settings: 24 h; for cell migration into the injured area: up to 100 μg/mL
Experimental: The normal human dermal fibroblast cell line (PCS-201-012) was cultured in DMEM blended with 10% fetal bovine serum (FBS), 10 μg/mL streptomycin, and 10 units/mol penicillin. The cells were cultured in 5% CO2 and fully humidified at 37°C. All tested compounds were dissolved at a final vehicle (DMSO) concentration of not more than 0.5% (v/v). Cells cultured in drug-free DMEM were used as controls, and cells treated with DMSO alone were used as solvent controls. All extracts (JM1-JM6) and the main components of the tested extracts (9, 12, and 22) were analyzed at the following concentrations: 10, 25, 50, 100, 200, and 300 μg/mL. The in vitro wound healing activity of J. montana extracts and isolated compounds was determined by a scratch assay, which is a model of a wound in which monolayer skin cells, including fibroblasts, react to the disruption of contact between cells and stimulate proliferation and migration by modulating the concentration of growth factors and cytokines at the edge wounds ([Liang et al., 2007]). For this purpose, fibroblast cells were seeded at a density of 2.5 × 10^5 in 6-well cell culture dishes and incubated for 24 h at 37°C. After incubation, a linear scratch was made with a universal sterile 200 μL pipette tip. Cells were incubated with the tested extracts (JM1-JM6) and compounds (9, 12, and 22) at concentrations of 10, 25, 50, 100, 200 and 300 μg/mL for 24 h at 37°C. Allantoin, a plant-derived commercialized drug, was used as the positive control at a concentration of 50 μg/mL to judge the rate of cell migration ([[…] et al., 2020]). After incubation, the migrated cells were washed twice with PBS and observed under a phase contrast microscope. The progress of migration, proliferation and closing of the wound before and after treatment with the tested samples was monitored by imaging with a phase contrast microscope (Nikon Eclipse Ti, Tokyo, Japan) at × 100 magnification and NIS-Elements 3.0 imaging software (Nikon Instruments Inc., Melville, NY, United States).

[8] = tested on: collagen type I in fibroblast cells (PCS-201-012); assay: Collagen type I biosynthesis by flow cytometry; assay type: cell-based, human; settings: for collagen type I content, median fluorescence intensity (MFI): 24 h
Experimental: The normal human dermal fibroblast cell line (PCS-201-012) was cultured in DMEM blended with 10% fetal bovine serum (FBS), 10 μg/mL streptomycin, and 10 units/mol penicillin. The cells were cultured in 5% CO2 and fully humidified at 37°C. All tested compounds were dissolved at a final vehicle (DMSO) concentration of not more than 0.5% (v/v). Cells cultured in drug-free DMEM were used as controls, and cells treated with DMSO alone were used as solvent controls. All extracts (JM1–JM6) and the main components of the tested extracts (9, 12, and 22) were analyzed at the following concentrations: 10, 25, 50, 100, 200, and 300 μg/mL. The effect of the tested extracts and fractions (JM1–JM6), as well as their main compounds (9, 12, and 22) on collagen type I biosynthesis was determined using a method of cytometric staining of the surface anti-collagen type I according to the manufacturer’s protocols. Fibroblasts were incubated for 24 h at 37°C with the test samples at concentrations of 10, 25, 50, 100, 200, and 300 μg/mL. Allantoin (50 μg/mL) was used as a positive control. After incubation, fibroblasts were washed with PBS, trypsinized, resuspended in DMEM and centrifuged (1,200 rpm, 10 min, 4°C). The supernatant was removed, and the cells were washed with 2 mL of stain buffer. Then, the cells were incubated for 30 min on ice with 100 µL of stain buffer and 1 µL of antibody. After complete incubation, 2 mL of stain buffer was added. After consecutive centrifugation (1,200 rpm, 10 min, 4°C), the supernatant was removed, the cells were resuspended in 300 µL of buffer and then immediately subjected to analysis on a flow cytometer (BD FACSCanto II flow cytometer, San Jose, CA, United States) calibrated with BD Cytometer Setup and Tracking beads (BD Biosciences, San Diego, CA, United States). The median fluorescence intensity was calculated using FACSDiva software (BD Biosciences Systems, San Jose, CA, United States) and analyzed by FCS Express 7 software (DeNovo Software, Pasadena, CA, United States).

[9] = tested on: IL-1β in fibroblast cells (PCS-201-012); assay: Cytometric Bead Array, IL-1β secretion; assay type: cell-based, human; settings: for IL-1β: BSR = below the standard range (lower than detection limit)
Experimental: as §1

O=c1cc(-c2ccc(O)c(O)c2)oc2cc(O[C@@H]3O[C@H](CO)[C@@H](O)[C@H](O)[C@H]3O)cc(O)c12 [Compound 12, luteolin 7-O-β-D-glucoside]
concentration at which the highest increase in IL-6 secretion occurred [1]: 100 µg/mL | DPPH, IC50 [2]: 16.6 ± 0.7 µg/mL and 16.59 ± 0.7 µg/mL | antiradical potential in the DPPH method compared with Trolox [2]: stronger antiradical potential | anti-elastase activity (in words) [3]: no significant inhibitory activity; also recorded: not active | FRAP / reducing power [4]: 51.9 ± 0.5 mM Fe^2+/mL | FRAP [4]: 51.88 ± 0.53 mM Fe^2+eq/mL | IL-8 levels (in words) ([5]; 100–300 μg/mL): reduced IL-8 levels | cytotoxicity on dermal fibroblast cells (in words) [6]: did not show strong cytotoxicity | cell migration into the injured area [7]: significantly increased | collagen type I content, median fluorescence intensity (MFI) ([8]; 300 μg/mL, control 1,507 ± 9.2): 1717 ± 10.6

Cc1c(C)c2c(c(C)c1O)CCC(C)(C(=O)O)O2 (centres unmarked) [Trolox, reference compound]
DPPH, IC50 [2]: 58.6 ± 0.1 µg/mL

O=c1cc(-c2ccc(O)c(O)c2)oc2cc(O)cc(O)c12 [Compound 22, 5,7,3',4'-tetrahydroxyflavone]
IL-1β level ([9]; 100 μg/mL, 24 h, control 13.4 ± 5.6 pg/mL): 1.7 ± 1.1 pg/mL | IL-1β ([9]; 200 μg/mL): BSR | IL-1β ([9]; 300 μg/mL): BSR | IL-1β expression (in words) ([9]; 200–300 μg/mL, 24 h): below the sensitivity of the method | secretion of IL-1β (in words) ([9]; all tested concentrations 10–300 μg/mL, 24 h): highest decrease | IL-6 expression levels (in words) ([1]; 10–300 μg/mL, vs untreated control): dose-dependent decrease | DPPH, IC50 [2]: 10.6 ± 0.7 µg/mL and 10.65 ± 0.7 µg/mL | antiradical potential in the DPPH method compared with Trolox [2]: stronger antiradical potential | IC50 ([3]; Tris buffer pH 8.0, substrate AAAPVN, 410 nm): 139 µM | FRAP / reducing power [4]: 60.59 ± 0.5 mM Fe^2+/mL | FRAP [4]: 51.81 ± 0.78 mM Fe^2+eq/mL | IL-8 level ([5]; 300 μg/mL, control 8,396.8 ± 2,771.1 pg/mL): 60.8 ± 8 pg/mL | IL-8 expression (in words) ([5]; 10–300 μg/mL): decrease in its expression was most pronounced | cytotoxicity on dermal fibroblast cells (in words) [6]: toxicity at the higher concentrations tested | stimulation of fibroblast migration ([7]; only at 10 μg/mL): capable of stimulating cells only at a low concentration | collagen content in fibroblast cells (in words) ([8]; 10 μg/mL): decrease in collagen content

NC(=O)NC1NC(=O)NC1=O (centres unmarked) [allantoin, reference compound]
IL-1β levels (in words) ([9]; 50 μg/mL, 24 h, positive control): stimulation of proinflammatory IL-1β levels | IL-6 (in words) ([1]; 50 μg/mL, positive control): upregulation of IL-6 | IL-8 expression (in words) ([5]; 50 μg/mL, positive control): decrease in IL-8 expression | collagen type I content, median fluorescence intensity (MFI) ([8]; 50 μg/mL, control 1822 ± 62.2): 1,494 ± 2.8

O=c1cc(-c2ccc(O)c(O)c2)oc2cc(O[C@@H]3O[C@H](CO)[C@@H](O)[C@H](O)[C@H]3O[C@@H]3OC[C@@H](O)[C@H](O)[C@H]3O)cc(O)c12 [Compound 9, luteolin 7-O-β-D-xylosyl-(1-2)-β-D-glucoside]
concentration at which the highest increase in IL-6 secretion occurred [1]: 100 µg/mL | DPPH, IC50 [2]: 20.34 ± 0.8 µg/mL | antiradical potential in the DPPH method compared with Trolox [2]: stronger antiradical potential | anti-elastase activity (in words) [3]: no significant inhibitory activity; also recorded: not active | FRAP [4]: 60.59 ± 0.46 mM Fe^2+eq/mL | IL-8 levels (in words) ([5]; 10–100 μg/mL): significant increase | IL-8 levels (in words) ([5]; 100–300 μg/mL): reduced IL-8 levels | effectiveness in the scratch test ([7]; 50 μg/mL, comparable with allantoin 50 μg/mL): most effective | cell migration into the injured area [7]: significantly increased | collagen type I content, median fluorescence intensity (MFI) ([8]; 300 μg/mL, control 1,507 ± 9.2): 1763 ± 58
